Assay results as given in patent publication US20260200943A1, “COMPOUNDS FOR TREATING CANCER” (Genesis Therapeutics, Inc., priority 2022, published 2026).

What was measured:
Type in all cases: biochemical
CDK1/CyclinB1 [1] = target: T1, CDK1/CyclinB1 (Homo sapiens, UniProt P06493); experiment: CDK1/CyclinB1 ChEF Assay (AQT, Table C); details: 10xKm, read-out: CDK1/CCNB1 AQT AQT10xKm Ki: Average Ki
T1 construct: Wild-type, full length CDK1 in complex with wildtype, full length CyclinB1: Carna Cat #04-102; purchased Carna 04-102
Protocol: 16 nL of 1000× compound in 100% DMSO is added to a 384-well low volume, black assay plate. 12 μL of 1.3×CDK1/CyclinB1 (Wild-type, full length CDK1 in complex with wildtype, full length CyclinB1: Carna Cat #04-102) diluted in assay buffer (54 mM Hepes, 0.012% Brij-35, 10 mM MgCl2, 0.55 mM EGTA, 1% Glycerol, 0.02% BSA, and 1.2 mM DTT) is added to the plates on top of the compound and pre-incubated for 30 minutes at room temperature. Following the incubation, 4 uL of 4×Sox-chromophore (CSox) labeled peptide substrate (AQT0297, AssayQuant) & ATP diluted in assay buffer is added to the plate to initiate the reaction. The assay is incubated at room temperature for 120 min after initiation. The CSox peptide substrate is phosphorylated by CDK1/B1 upon ATP hydrolysis.
(§1) The fluorescent intensity measurement of the assay plate is read on a microplate reader once the assay is initiated and again at the completion of the assay. Phosphorylation of the CSox-based peptide substrate sensor results in an immediate increase in fluorescence. These raw fluorescence intensity values are normalized to calculate percent inhibition, which are fit to a four-parameter logistic curve and IC50 values are calculated. IC50 values are converted to Ki using substrate, KM^app values, and the Cheng-Prusoff equation.

CDK9/CyclinT1 = CDK9/CyclinT1 (Homo sapiens, UniProt P50750); experiment: CDK9/CyclinT1 ChEF Assay (AQT, Table C); parameters: Wild-type, full length CDK9 in complex with wildtype, CyclinT1 (1-259): Biortus Cat #BP480/792/691; purchased Biortus BP480/792/691; details: 10XKm
Protocol: 16 nL of 1000× compound in 100% DMSO is added to a 384-well low volume, black assay plate. 12 μL of 1.3×CDK9/CyclinT1 (Wild-type, full length CDK9 in complex with wildtype, CyclinT1 (1-259): Biortus Cat #BP480/792/691) diluted in assay buffer (54 mM Hepes, 0.012% Brij-35, 10 mM MgCl2, 0.55 mM EGTA, 1% Glycerol, 0.02% BSA, and 1.2 mM DTT) is added to the plates on top of the compound and pre-incubated for 30 minutes at room temperature. Following the incubation, 4 μL of 4×Sox-chromophore (CSox) labeled peptide substrate (AQT0449, AssayQuant) & ATP diluted in assay buffer is added to the plate to initiate the reaction. The assay is incubated at room temperature for 180 min after initiation. The CSox peptide substrate is phosphorylated by CDK9/T1 upon ATP hydrolysis.
as §1

CDK1/CyclinB1 [2] = target: T1, CDK1/CyclinB1; experiment: CDK1/Cyclin B1 Mobility Shift Assay (Caliper, Table B); details: read-out: CDK1/CCNB1 Caliper Ki: Average Ki
Protocol: 10 nL of 2000× compound in 100% DMSO is added to a 384-well polypropylene assay plate. 15 μL of 1.3×CDK1/B1 and 1.3× fluorescent substrate (Wild-type, full length CDK1 in complex with wildtype, full length CyclinB1: Carna Cat #04-102 and FL-Peptide 29: PerkinElmer Cat #760429) diluted in kinase buffer (50 mM Hepes, 0.01% Brij-35, 10 mM MgCl2, 1 mM EGTA, 0.05% BSA, and 2 mM DTT) is added to the plates on top of the compound, mixed, and pre-incubated for 30 minutes at room temperature. The fluorescently labeled peptide substrate is phosphorylated by CDK1/B1 upon ATP hydrolysis. Following the incubation, 5 μL of 4×ATP diluted in kinase buffer is added to the plate to initiate the reaction. Following the 30-minute incubation, the reaction is stopped by adding 75 μL of stopping buffer containing 0.5 M EDTA.
The assay plate is then read on a Lab Chip EZ Reader which separates the fluorescently labeled substrate and product peptides through a mobility difference. The phosphorylation of the substrate imparts a negative charge, which allows differences in separation as both are pulled through the microfluidic chip. The ratio of substrate and product values are used to generate percent conversion. These raw percent conversion values are normalized to calculate percent inhibition, which are fit to a four-parameter logistic curve and IC50 values are calculated. IC50 values are converted to Ki using substrate, Kmapp values, and the Cheng-Prusoff equation.

CDK2/CyclinA2 = target: T2, CDK2/CyclinA2 (Homo sapiens, UniProt P24941); experiment: CDK2/CyclinA2 ChEF Assay (Table A); details: for Ki: 10xKm, read-out: CDK2/CCNA2 ChEF 10xKm Ki: Average Ki
T2 construct: Wild-type, full length CDK2 in complex with wildtype, full length CyclinA2: Carna Cat #04-103; purchased Carna 04-103
Protocol: 500 nL of 50× compound in 100% DMSO is added to a 384-well low volume, white assay plate. 19.5 μL of 1.3×CDK2/CyclinA2 (Wild-type, full length CDK2 in complex with wildtype, full length CyclinA2: Carna Cat #04-103 diluted in assay buffer (50 mM Hepes, 0.01% Brij-35, 10 mM MgCl2, 0.5 mM EGTA, 1% Glycerol, and 1.2 mM DTT) is added to the plates on top of the compound and pre-incubated for 30 minutes at room temperature. Following the incubation, 5 μL of 5×Sox-chromophore (CSox) labeled peptide substrate (AQT0255, AssayQuant) & ATP diluted in assay buffer is added to the plate to initiate the reaction. The assay is incubated at room temperature for 45 min after initiation. The CSox peptide substrate is phosphorylated by CDK2/A2 upon ATP hydrolysis.
as §1, with “assay plate for all assays described above is read” for “assay plate is read”

CDK9/CyclinT1, sequence (P50750 whole entry): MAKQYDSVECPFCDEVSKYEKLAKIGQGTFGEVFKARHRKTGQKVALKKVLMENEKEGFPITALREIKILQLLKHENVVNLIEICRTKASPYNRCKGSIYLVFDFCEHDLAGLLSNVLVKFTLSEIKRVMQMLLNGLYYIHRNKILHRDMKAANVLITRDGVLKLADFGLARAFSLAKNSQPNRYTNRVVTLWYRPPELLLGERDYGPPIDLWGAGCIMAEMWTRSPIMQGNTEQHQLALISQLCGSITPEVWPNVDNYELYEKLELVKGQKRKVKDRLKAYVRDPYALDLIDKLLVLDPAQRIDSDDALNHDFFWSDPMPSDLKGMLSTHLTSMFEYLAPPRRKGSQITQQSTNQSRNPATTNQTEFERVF
CDK9/CyclinT1, sequence (O60563 1-259 partner limits assumed): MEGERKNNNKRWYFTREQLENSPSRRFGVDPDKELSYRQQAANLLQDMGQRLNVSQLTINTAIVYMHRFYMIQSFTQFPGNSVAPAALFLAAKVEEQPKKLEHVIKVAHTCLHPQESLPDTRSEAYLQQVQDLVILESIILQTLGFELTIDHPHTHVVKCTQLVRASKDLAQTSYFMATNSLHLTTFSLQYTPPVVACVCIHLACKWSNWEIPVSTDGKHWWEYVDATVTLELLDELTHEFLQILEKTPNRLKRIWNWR
T1 sequence (P06493 whole entry): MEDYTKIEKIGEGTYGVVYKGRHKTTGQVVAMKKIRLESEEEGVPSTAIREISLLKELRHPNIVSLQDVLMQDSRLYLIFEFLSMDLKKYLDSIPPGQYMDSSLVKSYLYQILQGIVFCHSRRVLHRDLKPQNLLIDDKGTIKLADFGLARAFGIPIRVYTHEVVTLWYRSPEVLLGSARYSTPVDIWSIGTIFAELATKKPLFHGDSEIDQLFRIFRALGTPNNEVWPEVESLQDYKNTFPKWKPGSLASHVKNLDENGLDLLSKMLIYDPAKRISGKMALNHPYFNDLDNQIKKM
T1 sequence (P14635 whole entry partner): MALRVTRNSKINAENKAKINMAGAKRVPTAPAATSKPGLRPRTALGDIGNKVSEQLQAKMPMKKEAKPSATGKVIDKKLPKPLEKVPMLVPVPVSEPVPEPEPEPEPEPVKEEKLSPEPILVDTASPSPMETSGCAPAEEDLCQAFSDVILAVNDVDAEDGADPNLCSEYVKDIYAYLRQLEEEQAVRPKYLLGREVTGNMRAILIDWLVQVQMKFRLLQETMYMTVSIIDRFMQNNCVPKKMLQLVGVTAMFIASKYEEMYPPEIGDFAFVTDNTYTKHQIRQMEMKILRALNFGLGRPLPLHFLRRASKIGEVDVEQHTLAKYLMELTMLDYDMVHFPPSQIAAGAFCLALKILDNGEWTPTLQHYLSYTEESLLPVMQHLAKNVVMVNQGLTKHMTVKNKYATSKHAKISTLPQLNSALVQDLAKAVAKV

NS(=O)(=O)c1ccc2cc1OCCCCCNC(=O)O[C@@H]1CC[C@@H](C1)c1cnc(nc1)N2 (stereo in doubt) [Compound 105, rel-(2S,5R)-7-oxo-6,14-dioxa-8,20,22,25-tetraazatetracyclo[19.2.2.1^{2,5}.1^{15,19}]heptacosa-1(23),15,17,19(26),21,24-hexaene-16-sulfonamide]
Ki (CDK1/CyclinB1 [1]): 1 to 25 nM | Ki (CDK9/CyclinT1): 25 to 100 nM

O=C1NCCOCCNS(=O)(=O)c2ccc(c(F)c2)Nc2cc([nH]n2)[C@H]2CC[C@H](C2)O1 [Compound 89, (1^1S,1^3R,Z)-4^2-Fluoro-2^1H-9,14-dioxa-5-thia-3,6,12-triaza-2(5,3)-pyrazola-4(1,4)-benzena-1(1,3)-cyclopentanacyclotetradecaphan-13-one 5,5-dioxide]
Ki (CDK1/CyclinB1 [2]): 1 to 25 nM | Ki (CDK2/CyclinA2): 1 to 25 nM | CDK2/CCNA2 ChEF 10xKm Ki: CDK2/A2 Selectivity over CDK9/T1 (CDK2/CyclinA2): A (A>10)

O=C1NCCCCCNS(=O)(=O)c2ccc(c(F)c2)Nc2cc([nH]n2)[C@H]2CC[C@H](C2)O1 [Compound 90, (1^1S,1^3R,Z)-4^2-fluoro-2^1H-14-oxa-5-thia-3,6,12-triaza-2(5,3)-pyrazola-4(1,4)-benzena-1(1,3)-cyclopentanacyclotetradecaphan-13-one 5,5-dioxide]
Ki (CDK1/CyclinB1 [2]): 25 to 100 nM | Ki (CDK2/CyclinA2): 1 to 25 nM | CDK2/CCNA2 ChEF 10xKm Ki: CDK2/A2 Selectivity over CDK9/T1 (CDK2/CyclinA2): A (A>10)

O=C1NCCCCCCNS(=O)(=O)c2ccc(c(F)c2)Nc2cc([nH]n2)[C@H]2CC[C@H](C2)O1 [Compound 91, (1^1S,1^3R,Z)-4^2-fluoro-2^1H-15-oxa-5-thia-3,6,13-triaza-2(5,3)-pyrazola-4(1,4)-benzena-1(1,3)-cyclopentanacyclopentadecaphan-14-one 5,5-dioxide]
Ki (CDK1/CyclinB1 [1]): 1 to 25 nM | Ki (CDK9/CyclinT1): 25 to 100 nM | Ki (CDK1/CyclinB1 [2]): 1 to 25 nM | Ki (CDK2/CyclinA2): < 1 nM | CDK2/CCNA2 ChEF 10xKm Ki: CDK2/A2 Selectivity over CDK9/T1 (CDK2/CyclinA2): A (A>10)

O=C1NCCCCCCCNS(=O)(=O)c2ccc(c(F)c2)Nc2cc([nH]n2)[C@H]2CC[C@H](C2)O1 [Compound 92]
Ki (CDK1/CyclinB1 [2]): < 1 nM | Ki (CDK2/CyclinA2): < 1 nM | CDK2/CCNA2 ChEF 10xKm Ki: CDK2/A2 Selectivity over CDK9/T1 (CDK2/CyclinA2): A (A>10)

O=C1NCCCn2cc(cn2)S(=O)(=O)N2CCC(CC2)Nc2cc([nH]n2)[C@H]2CC[C@H](C2)O1 [Compound 95, (1^1S, 1^3R,2^4Z,6^4E)-2^1H,6^1H-12-oxa-5-thia-3,10-diaza-4(4,1)-piperidina-2(5,3),6(4,1)-dipyrazola-1(1,3)-cyclopentanacyclododecaphan-11-one 5,5-dioxide]
Ki (CDK1/CyclinB1 [2]): ≥ 100 nM | Ki (CDK2/CyclinA2): ≥ 100 nM | CDK2/CCNA2 ChEF 10xKm Ki: CDK2/A2 Selectivity over CDK9/T1 (CDK2/CyclinA2): C (C<5)

O=C1NCCCCCn2cc(cn2)S(=O)(=O)N2CCC(CC2)Nc2cc([nH]n2)[C@H]2CC[C@H](C2)O1 [Compound 96, (1^1S,1^3R,2^4Z,6^4E)-2^1H,6^1H-14-oxa-5-thia-3,12-diaza-4(4,1)-piperidina-2(5,3),6(4,1)-dipyrazola-1(1,3)-cyclopentanacyclotetradecaphan-13-one 5,5-dioxide]
Ki (CDK1/CyclinB1 [2]): ≥ 100 nM | Ki (CDK2/CyclinA2): 1 to 25 nM | CDK2/CCNA2 ChEF 10xKm Ki: CDK2/A2 Selectivity over CDK9/T1 (CDK2/CyclinA2): A (A>10)

O=C1NCCCCCCn2cc(cn2)S(=O)(=O)N2CCC(CC2)Nc2cc([nH]n2)[C@H]2CC[C@H](C2)O1 [Compound 97, (1^1S,1^3R,2^4Z,6^4E)-2^1H,6^1H-15-oxa-5-thia-3,13-diaza-4(4,1)-piperidina-2(5,3),6(4,1)-dipyrazola-1(1,3)-cyclopentanacyclopentadecaphan-14-one 5,5-dioxide]
Ki (CDK1/CyclinB1 [1]): 1 to 25 nM | Ki (CDK9/CyclinT1): 25 to 100 nM | Ki (CDK1/CyclinB1 [2]): 1 to 25 nM | Ki (CDK2/CyclinA2): < 1 nM | CDK2/CCNA2 ChEF 10xKm Ki: CDK2/A2 Selectivity over CDK9/T1 (CDK2/CyclinA2): A (A>10)

O=C1NCCCNS(=O)(=O)c2ccc(c(F)c2)Nc2cc([nH]n2)[C@H]2CC[C@H](C2)O1 [Compound 98, (1^1S, 1^3R,Z)-4^2-fluoro-2^1H-12-oxa-5-thia-3,6, 10-triaza-2(5,3)-pyrazola-4(1,4)-benzena-1(1,3)-cyclopentanacyclododecaphan-11-one 5,5-dioxide]
Ki (CDK1/CyclinB1 [2]): ≥ 100 nM | Ki (CDK2/CyclinA2): 25 to 100 nM | CDK2/CCNA2 ChEF 10xKm Ki: CDK2/A2 Selectivity over CDK9/T1 (CDK2/CyclinA2): B (5≤B<10)

O=C1NCCCCNS(=O)(=O)c2ccc(c(F)c2)Nc2cc([nH]n2)[C@H]2CC[C@H](C2)O1 [Compound 99, (1^1S, 1^3R,Z)-4^2-fluoro-2^1H-13-oxa-5-thia-3,6,11-triaza-2(5,3)-pyrazola-4(1,4)-benzena-1(1,3)-cyclopentanacyclotridecaphan-12-one 5,5-dioxide]
Ki (CDK1/CyclinB1 [2]): 1 to 25 nM | Ki (CDK2/CyclinA2): < 1 nM | CDK2/CCNA2 ChEF 10xKm Ki: CDK2/A2 Selectivity over CDK9/T1 (CDK2/CyclinA2): A (A>10)

CN1CCNC(=O)O[C@@H]2CC[C@@H](C2)c2cc(n[nH]2)Nc2ccc(cc2F)S(=O)(=O)NCC1 [Compound 100, (1^1S, 1^3R,Z)-4^2-fluoro-9-methyl-2^1H-14-oxa-5-thia-3,6,9,12-tetraaza-2(5,3)-pyrazola-4(1,4)-benzena-1(1,3)-cyclopentanacyclotetradecaphan-13-one 5,5-dioxide]
Ki (CDK1/CyclinB1 [2]): ≥ 100 nM | Ki (CDK2/CyclinA2): 1 to 25 nM | CDK2/CCNA2 ChEF 10xKm Ki: CDK2/A2 Selectivity over CDK9/T1 (CDK2/CyclinA2): A (A>10)

CC1(C)CCCNS(=O)(=O)c2ccc(c(F)c2)Nc2cc([nH]n2)[C@H]2CC[C@H](C2)OC(=O)N1 [Compound 101, (1^1S,1^3R,Z)-4^2-fluoro-10,10-dimethyl-2^1H-13-oxa-5-thia-3,6,11-triaza-2(5,3)-pyrazola-4(1,4)-benzena-1(1,3)-cyclopentanacyclotridecaphan-12-one 5,5-dioxide]
Ki (CDK1/CyclinB1 [2]): ≥ 100 nM | Ki (CDK2/CyclinA2): 1 to 25 nM | CDK2/CCNA2 ChEF 10xKm Ki: CDK2/A2 Selectivity over CDK9/T1 (CDK2/CyclinA2): A (A>10)

O=C1NCC=CCNS(=O)(=O)c2ccc(c(F)c2)Nc2cc([nH]n2)[C@H]2CC[C@H](C2)O1 [Compound 102, (1^1S,1^3R,2^4Z)-4^2-fluoro-2^1H-13-oxa-5-thia-3,6,11-triaza-2(5,3)-pyrazola-4(1,4)-benzena-1(1,3)-cyclopentanacyclotridecaphan-8-en-12-one 5,5-dioxide]
Ki (CDK1/CyclinB1 [2]): 25 to 100 nM | Ki (CDK2/CyclinA2): < 1 nM | CDK2/CCNA2 ChEF 10xKm Ki: CDK2/A2 Selectivity over CDK9/T1 (CDK2/CyclinA2): A (A>10)
